Assays:
[1] = target: T1, thrombin (Homo sapiens, UniProt P00734); assay: Kinetic amidolytic assay with chromogenic substrate S-2238 (inhibition constants); format: biochemical; conditions: 25° C., S-2238, clotting buffer; read-out: KI, nM (25° C.)
Protocol: (§1) Peptides were freeze-dried and their identity was confirmed by ion-spray mass spectrometry. Clotting assays were carried out by use of the protocols described previously (DiMaio and others, 1990, 21698-21703; Witting and others, 1992, 737-743). The assay employs bovine plasma fibrinogen dissolved at 0.1% in 50 mM Tris-Cl, 100 mM NaCl, 0.1% PEG-8000 at pH 7.6 (i.e. the clotting buffer). Each assay mixture contained a certain concentration of the peptide, and the reaction was started by the addition of human thrombin to a final concentration of 0.6-1.2 nM. Optical absorbance increase at 420 nm caused by fibrin clot formation was measured at 25° C. or 37° C. using the Spectramax plate reader. The onset clotting time was determined as an intersection of the baseline and the extrapolated linear portion of the OD change curve. The concentration of a peptide needed to double the clotting time was defined as IC50 (DiMaio and others, 1990, 21698-21703). Kinetic amidolytic curves were obtained in clotting buffer at 25° C. using eight inhibitor concentrations and three to five concentrations of the chromogenic substrate S-2238 (Chromogenix) (DiMaio and others, 1990, 21698-21703). Inhibition constants were extracted from Lineweaver-Burk equation by using weighted linear regression. Errors in Ki determination were estimated by using Monte-Carlo sampling with 1-3% variance of the experimental points. Peptide concentrations were determined spectrophotometrically using predicted extinction coefficients at 278 nm (Gill and von Hippel, 1989, 319-326).

[2] = target: T1, thrombin; assay: Fibrinogen clotting assay catalyzed by thrombin; format: biochemical; conditions: for IC50: concentration needed to double the clotting time
Protocol: Curves represent OD420 time course after the addition of 0.6 nM thrombin in the presence of (♦) 0 nM; (◯) 0.5 nM; (□) 1 nM; (Δ) 1.5 nM; (⋄) 2.5 nM; (●) 3.75 nM; (▪) 6.25 nM; and (▴) […] of the inhibitor with linker (GS)n and n=2 (SEQ. ID. NO. 50) (a); n=4 (SEQ. ID. NO. 51) (b); n=6 (SEQ. ID. NO. 52) (c); n=8 (SEQ. ID. NO. 53) (d); n=10 (SEQ. ID. NO. 54) (e); and in the presence of (♦) 0 nM; (◯) 1 nM; (□) 2 nM; (Δ) 4 nM; (⋄) 6 nM; (●) 10 nM; (▪) 15 nM; and (▴) 25 nM of the inhibitor with linker (GS)n and n=12 (SEQ. ID. NO. 55) (f); n=14 (SEQ. ID. NO. 56) (g), at 37° C. The onset clotting time was determined as an intersection of the baseline and the extrapolated linear portion of the OD change curve. […] Curves (i) represent OD420 time course in the presence of (A) 0 nM; (◯) 1 nM; (□) 2 nM; (Δ) 4 nM; (⋄) 6 nM; and (●) 15 nM of the inhibitor with linker […] (SEQ. ID. NO. 103), at 37° C. […] represent OD420 time course in the presence of (◯) 0 nM; (□) 2 nM; (Δ) 4 nM; (⋄) 6 nM; (●) 8 nM; (▪) 10 nM; (▴) 12 nM; and (♦) 15 nM; of the inhibitor with linker […] (SEQ. ID. NO. 58) at 25° C. Curves (k) represent OD420 time course in the presence of (◯) 0 nM; (□) 0.5 nM; (Δ) 1 nM; (⋄) 2 nM; (●) 3 nM; (▪) 4 nM; (▴) 5 nM; and (♦) 6 nM; of the inhibitor with linker […] (SEQ. ID. NO. 105) at 37° C. Curves (I) represent OD420 time course in the presence of (◯) 0 nM; (□) 0.25 nM; (Δ) 0.5 nM; (⋄) 1 nM; (●) 1.5 nM; (▪) 2 nM; and (▴) 2.5 nM; of the inhibitor with linker […] (SEQ. ID. NO. 104) at 37° C. Curves (m) represent OD420 time course in the presence of (◯) 0 nM; (□) 2 nM; (Δ) 4 nM; (⋄) 6 nM; (●) 8 nM; (▴) 10 nM; and (A) 12 nM; of the inhibitor with linker […] (SEQ. ID. NO. 106) at 37° C. Curves (n) represent OD420 time course in the presence of (◯) 0 nM; (□) 1 nM; (Δ) 2 nM; (⋄) 3 nM; (●) 4 nM; (▪) 5 nM; (▴) 6 nM; and (♦) 7 nM; of the inhibitor with linker […] (SEQ. ID. NO. 107) at 37° C. Curves (o) represent OD420 time course in the presence of (◯) 0 nM; (□) 4 nM; and (Δ) 8 nM; of the inhibitor with linker GQSHNR (SEQ. ID. NO. 108) at 37° C.
Other experimental conditions were as used for the assays described in FIG. 2.
as §1, with “Clotting” for “Peptides were freeze-dried and their identity was confirmed by ion-spray mass spectrometry. Clotting”, “points.” for “points. Peptide concentrations were determined spectrophotometrically using predicted extinction coefficients at 278 nm (Gill and von Hippel, 1989, 319-326).”

SMILES | Ki [1] [nM] | IC50 ([2]; IC50, nM (37° C.), 37° C.) [nM] | Effect of SAP-SH2 on thrombin inhibition ([2]; 25 nM inhibitor, 5 and 10 μM SAP-SH2, 25° C.) | IC50 ([2]; IC50, nM (25° C.), 25° C.) [nM]
CC[C@H](C)[C@H](NC(=O)[C@H](CCC(=O)O)NC(=O)[C@H](CCC(=O)O)NC(=O)[C@H](Cc1ccccc1)NC(=O)[C@H](CC(=O)O)NC(=O)CNC(=O)[C@H](CO)NC(=O)CNC(=O)[C@H](CO)NC(=O)CNC(=O)[C@H](CO)NC(=O)CNC(=O)[C@H](CO)NC(=O)CNC(=O)[C@H](CO)NC(=O)CNC(=O)[C@H](CO)NC(=O)CNC(=O)[C@H]1CCCCN1C(=O)[C@H](CCCNC(=N)N)NS(=O)(=O)c1ccc(C(C)(C)C)cc1)C(=O)N1CCC[C@H]1C(=O)N[C@@H](CCC(=O)O)C(=O)N[C@@H](CCC(=O)O)C(=O)N[C@@H](Cc1ccc(O)cc1)C(=O)N[C@@H](CC(C)C)C(=O)N[C@@H](CCC(N)=O)C(=O)O [P3151] | 0.6 ± 0.1 | 0.5 ± 0.1 | – | –
CC[C@H](C)[C@H](NC(=O)[C@H](CCC(=O)O)NC(=O)[C@H](CCC(=O)O)NC(=O)[C@H](Cc1ccccc1)NC(=O)[C@H](CC(=O)O)NC(=O)CNC(=O)[C@H](CO)NC(=O)CNC(=O)[C@H](CO)NC(=O)CNC(=O)[C@H](CO)NC(=O)CNC(=O)[C@H](CO)NC(=O)CNC(=O)[C@H](CO)NC(=O)CNC(=O)[C@H](CO)NC(=O)CNC(=O)[C@H](CO)NC(=O)CNC(=O)[C@H](CO)NC(=O)CNC(=O)[C@H](CO)NC(=O)CNC(=O)[C@H](CO)NC(=O)CNC(=O)[C@H]1CCCCN1C(=O)[C@H](CCCNC(=N)N)NS(=O)(=O)c1ccc(C(C)(C)C)cc1)C(=O)N1CCC[C@H]1C(=O)N[C@@H](CCC(=O)O)C(=O)N[C@@H](CCC(=O)O)C(=O)N[C@@H](Cc1ccc(O)cc1)C(=O)N[C@@H](CC(C)C)C(=O)N[C@@H](CCC(N)=O)C(=O)O [P3153] | 2 ± 0.3 | 1 ± 0.1 | – | –
CC[C@H](C)[C@H](NC(=O)[C@@H](NC(=O)[C@H](CC(C)C)NC(=O)[C@H](CO)NC(=O)[C@H](CCCCN)NC(=O)[C@H](CCCNC(=N)N)NC(=O)CNC(=O)[C@H]1CCCCN1C(=O)[C@H](CCCNC(=N)N)NS(=O)(=O)c1ccc(C(C)(C)C)cc1)[C@@H](C)O)C(=O)N[C@@H](Cc1ccc(O)cc1)C(=O)N[C@@H](C)C(=O)N[C@@H](CCC(N)=O)C(=O)N[C@H](C(=O)N[C@@H](CCC(N)=O)C(=O)N[C@@H](CCCCN)C(=O)NCC(=O)N[C@@H](CC(=O)O)C(=O)N[C@@H](Cc1ccccc1)C(=O)N[C@@H](CCC(=O)O)C(=O)N[C@@H](CCC(=O)O)C(=O)N[C@H](C(=O)N1CCC[C@H]1C(=O)N[C@@H](CCC(=O)O)C(=O)N[C@@H](CCC(=O)O)C(=O)N[C@@H](Cc1ccc(O)cc1)C(=O)N[C@@H](CC(C)C)C(=O)N[C@@H](CCC(N)=O)C(=O)O)[C@@H](C)CC)C(C)C [P3291] | – | – | reversal of thrombin inhibition | 7 ± 1
CC[C@H](C)[C@H](NC(=O)[C@H](CCC(=O)O)NC(=O)[C@H](CCC(=O)O)NC(=O)[C@H](Cc1ccccc1)NC(=O)[C@H](CC(=O)O)NC(=O)CNC(=O)[C@H](CC(=O)O)NC(=O)[C@H](CC(N)=O)NC(=O)[C@H](Cc1c[nH]cn1)NC(=O)[C@H](CO)NC(=O)[C@H](CCC(N)=O)NC(=O)[C@@H]1CCCN1C(=O)[C@H](CCCCN)NC(=O)[C@@H]1CCCN1C(=O)[C@@H](NC(=O)CNC(=O)[C@H](CCC(=O)O)NC(=O)CNC(=O)[C@H](CC(=O)O)NC(=O)[C@@H](NC(=O)[C@H](Cc1ccccc1)NC(=O)[C@H](CCCNC(=N)N)NC(=O)[C@@H](N)C(C)C)[C@@H](C)O)[C@@H](C)O)C(=O)N1CCC[C@H]1C(=O)N[C@@H](CCC(=O)O)C(=O)N[C@@H](CCC(=O)O)C(=O)N[C@@H](Cc1ccc(O)cc1)C(=O)N[C@@H](CC(C)C)C(=O)N[C@@H](CCC(N)=O)C(=O)O [mini-hirudin 1] | – | 33 ± 3 | – | –
CC[C@H](C)[C@H](N)C(=O)N[C@@H](CCCNC(=N)N)C(=O)N[C@@H](Cc1ccccc1)C(=O)N[C@H](C(=O)N[C@@H](CC(=O)O)C(=O)NCC(=O)N[C@@H](CCC(=O)O)C(=O)NCC(=O)N[C@H](C(=O)N1CCC[C@H]1C(=O)N[C@@H](CC(N)=O)C(=O)N1CCC[C@H]1C(=O)N[C@@H](CCC(=O)O)C(=O)N[C@@H](CO)C(=O)N[C@@H](Cc1c[nH]cn1)C(=O)N[C@@H](CC(N)=O)C(=O)N[C@@H](CC(N)=O)C(=O)NCC(=O)N[C@@H](CC(=O)O)C(=O)N[C@@H](Cc1ccccc1)C(=O)N[C@@H](CCC(=O)O)C(=O)N[C@@H](CCC(=O)O)C(=O)N[C@H](C(=O)N1CCC[C@H]1C(=O)N[C@@H](CCC(=O)O)C(=O)N[C@@H](CCC(=O)O)C(=O)N[C@@H](Cc1ccc(O)cc1)C(=O)N[C@@H](CC(C)C)C(=O)N[C@@H](CCC(N)=O)C(=O)O)[C@@H](C)CC)[C@@H](C)O)[C@@H](C)O [mini-hirudin 2] | – | 14 ± 1 | – | –
CC[C@H](C)[C@H](N)C(=O)N[C@@H](CCCNC(=N)N)C(=O)N[C@@H](Cc1ccccc1)C(=O)N[C@H](C(=O)N[C@@H](CC(=O)O)C(=O)NCC(=O)N[C@@H](C)C(=O)N[C@@H](CCCCN)C(=O)N[C@H](C(=O)N[C@H](C(=O)N[C@@H](CCSC)C(=O)N[C@H](C(=O)N[C@@H](CS)C(=O)N[C@@H](CO)C(=O)N[C@@H](C)C(=O)N[C@@H](CO)C(=O)NCC(=O)N[C@@H](CC(=O)O)C(=O)N[C@@H](Cc1ccccc1)C(=O)N[C@@H](CCC(=O)O)C(=O)N[C@@H](CCC(=O)O)C(=O)N[C@H](C(=O)N1CCC[C@H]1C(=O)N[C@@H](CCC(=O)O)C(=O)N[C@@H](CCC(=O)O)C(=O)N[C@@H](Cc1ccc(O)cc1)C(=O)N[C@@H](CC(C)C)C(=O)N[C@@H](CCC(N)=O)C(=O)O)[C@@H](C)CC)[C@@H](C)O)[C@@H](C)O)C(C)C)[C@@H](C)O [mini-hirudin 3] | – | 10 ± 1 | – | –

Reference: patent US8063018B2, “Bivalent thrombin binding molecules comprising linkers” (National Research Council of Canada, priority 2004, dated 2011)
